# US20100075370A1, “METHOD FOR DETERMINATION OF CELL VIABILITY BY USING FLOW CYTOMETRY WITH FIXED VOLUME ACQUISITION” (TUMORTEC GMBH, priority 2006, published 2010)
# Tested on: pBMC from patients with CLL
# Assay: Cytotoxicity of several antineoplastic agents on pBMC (LC90), fixed volume flow cytometry
# Type: cell-based, human
# Conditions: in µg/mL
# Excerpt: The necessary peripheral blood (PB) samples from adult patients diagnosed with chronic lymphatic leukaemia (CLL) were collected into heparin during routine diagnosis prior to administration of chemotherapy.
# [1] = pBMC of CLL patient #1, ex vivo
# [2] = pBMC of CLL patient #2, ex vivo
# [3] = pBMC of CLL patient #3, ex vivo
# [4] = pBMC of CLL patient #4, ex vivo
# [5] = pBMC of CLL patient #5, ex vivo
# [6] = pBMC of CLL patient #6, ex vivo
# [7] = pBMC of CLL patient #7, ex vivo
# [8] = pBMC of CLL patient #8, ex vivo
# [9] = pBMC of CLL patient #9, ex vivo
# [10] = pBMC of CLL patient #10, ex vivo
# [11] = pBMC of CLL patient #11, ex vivo
# [12] = pBMC of CLL patient #12, ex vivo
# [13] = pBMC of CLL patient #13, ex vivo
# [14] = pBMC of CLL patient #14, ex vivo
# [15] = pBMC of CLL patient #15, ex vivo
# [16] = pBMC of CLL patient #16, ex vivo
# [17] = pBMC of CLL patient #17, ex vivo
# [18] = pBMC of CLL patient #18, ex vivo
# [19] = pBMC of CLL patient #19, ex vivo
# [20] = pBMC of CLL patient #20, ex vivo
# [21] = pBMC of CLL patient #21, ex vivo
# [22] = pBMC of CLL patient #22, ex vivo
# [23] = pBMC of CLL patient #23, ex vivo
# [24] = pBMC of CLL patient #24, ex vivo
# [25] = pBMC of CLL patient #25, ex vivo
SMILES,LC90 [1],LC90 [2],LC90 [3],LC90 [4],LC90 [5],LC90 [6],LC90 [7],LC90 [8],LC90 [9],LC90 [10],LC90 [11],LC90 [12],LC90 [13],LC90 [14],LC90 [15],LC90 [16],LC90 [17],LC90 [18],LC90 [19],LC90 [20],further results
"C[C@]12C=CC(=O)C=C1CC[C@@H]1[C@@H]2[C@@H](O)C[C@@]2(C)[C@H]1CC[C@]2(O)C(=O)CO [Prednisolone ®, Prednisolone]",40.69,21.96,12.17,2.25,12.67,0.88,35.35,29.81,33.00,11.71,0.46,0.86,2.56,0.56,0.82,0.19,35.69,0.51,0.98,99.92,LC90 [21]: 0.54; LC90 [22]: 12.76; LC90 [23]: 0.82; LC90 [24]: 48.18; LC90 [25]: 0.48
"CC[C@]1(O)C[C@H]2CN(CCc3c([nH]c4ccccc34)[C@@](C(=O)OC)(c3cc4c(cc3OC)N(C=O)[C@H]3[C@@](O)(C(=O)OC)[C@H](OC(C)=O)[C@]5(CC)C=CCN6CC[C@]43[C@@H]65)C2)C1 [Oncovin ®, Vincristin]",2.51,0.47,0.14,10.96,0.33,0.07,0.88,10.23,0.47,0.41,0.21,0.97,0.24,0.04,0.44,0.13,0.41,0.70,0.10,0.42,LC90 [21]: 0.10; LC90 [22]: 0.30; LC90 [23]: 0.08; LC90 [24]: 61.57; LC90 [25]: 0.23
"Nc1nc(Cl)nc2c1ncn2[C@H]1C[C@H](O)[C@@H](CO)O1 [Cladribine ®, Cladribine]",0.185,0.184,0.159,0.107,0.083,0.080,0.063,0.059,0.052,0.048,0.047,0.040,0.029,0.027,0.024,0.017,0.015,0.013,0.007,0.006,LC90 [21]: 0.005; LC90 [22]: 0.004; LC90 [23]: 0.000; LC90 [24]: 8.100; LC90 [25]: 1.967
"O=C1c2c(O)ccc(O)c2C(=O)c2c(NCCNCCO)ccc(NCCNCCO)c21 [Novantrone ®, Mitoxantrone]",0.06,0.03,0.19,0.15,0.11,13.37,0.14,0.02,0.10,0.05,12.80,0.06,0.40,0.09,0.05,0.01,0.03,0.08,0.07,0.02,LC90 [21]: 0.05; LC90 [22]: 0.05; LC90 [23]: 0.01; LC90 [24]: 12.77; LC90 [25]: 0.17
